Literature values in US20260069551A1, “Patch for treating demyelinating diseases” (Johannes Gutenberg-Universität Mainz, priority 2022, published 2026).

System: injured nerves
Conditions: 10 mg/kg/day, intraperitoneally injected

SMILES: Cn1c(=O)c2[nH]cnc2n(C)c1=O [theophylline, 1,3-dimethyl-7H-purine-2,6-dione]
- remyelination of injured nerves: significant remyelination
